PubChem BioAssay AID2060619 (Molecular Pharmacology Branch, DTP, NCI, 2025)

System: 323965-272-R-J2-PDC complex spheroid viability
Experiment: Anticancer human tumor 323965-272-R-J2-PDC patient-derived pancreatic carcinoma cell line growth inhibition [CLK]
Details: for IC50: curve of first compound; for viability, T/C: stronger effect = lower value
How it was run: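 Multi-cell-type spheroids combined patient-derived tumor cells with HUVEC endothelial cells and human mesenchymal stem cells. Paired agents were dosed in half-log steps down from about clinical Cmax, or from 10 microM where Cmax was unknown.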
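Note: spheroids exposed to agents for seven days before readout.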
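Throughout, for viability, T/C: percent of DMSO vehicle control wells so 100% = untreated growth.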

## C=CC(=O)Nc1cc(Nc2nccc(-c3cn(C)c4ccccc34)n2)c(OC)cc1N(C)CCN(C)C + CNC(=O)c1ccc(Nc2nc(OC3CCCC3)c3c(-c4ccc5nc(C)oc5c4)c[nH]c3n2)c(OC)c1
Second compound 0.0316 µM
  IC50: > 300 nM
Second compound 0.1 µM
  IC50: 171 nM
Second compound 0.316 µM
  IC50: 10.9 nM
Second compound 1 µM
  IC50: < 0.949 nM
Second compound 3.16 µM
  IC50: < 0.949 nM
Second compound 10 µM
  IC50: < 0.949 nM
Second compound 0.0316 µM, first compound 0.000949 µM
  viability, T/C: 101%
Second compound 0.0316 µM, first compound 0.003 µM
  viability, T/C: 110%
Second compound 0.0316 µM, first compound 0.00949 µM
  viability, T/C: 86%
Second compound 0.0316 µM, first compound 0.03 µM
  viability, T/C: 85.1%
Second compound 0.0316 µM, first compound 0.0949 µM
  viability, T/C: 81.9%
Second compound 0.0316 µM, first compound 0.3 µM
  viability, T/C: 83.5%
Second compound 0.1 µM, first compound 0.000949 µM
  viability, T/C: 70.8%
Second compound 0.1 µM, first compound 0.003 µM
  viability, T/C: 71.8%
Second compound 0.1 µM, first compound 0.00949 µM
  viability, T/C: 62.8%
Second compound 0.1 µM, first compound 0.03 µM
  viability, T/C: 60.1%
Second compound 0.1 µM, first compound 0.0949 µM
  viability, T/C: 57.1%
Second compound 0.1 µM, first compound 0.3 µM
  viability, T/C: 44.8%
Second compound 0.316 µM, first compound 0.000949 µM
  viability, T/C: 54.5%
Second compound 0.316 µM, first compound 0.003 µM
  viability, T/C: 55.5%
Second compound 0.316 µM, first compound 0.00949 µM
  viability, T/C: 46.9%
Second compound 0.316 µM, first compound 0.03 µM
  viability, T/C: 48%
Second compound 0.316 µM, first compound 0.0949 µM
  viability, T/C: 40.5%
Second compound 0.316 µM, first compound 0.3 µM
  viability, T/C: 31.6%
Second compound 1 µM, first compound 0.000949 µM
  viability, T/C: 41.9%
Second compound 1 µM, first compound 0.003 µM
  viability, T/C: 39%
Second compound 1 µM, first compound 0.00949 µM
  viability, T/C: 40.7%
Second compound 1 µM, first compound 0.03 µM
  viability, T/C: 34.4%
Second compound 1 µM, first compound 0.0949 µM
  viability, T/C: 34.2%
Second compound 1 µM, first compound 0.3 µM
  viability, T/C: 26.8%
Second compound 3.16 µM, first compound 0.000949 µM
  viability, T/C: 36.6%
Second compound 3.16 µM, first compound 0.003 µM
  viability, T/C: 43.6%
Second compound 3.16 µM, first compound 0.00949 µM
  viability, T/C: 37.6%
Second compound 3.16 µM, first compound 0.03 µM
  viability, T/C: 34.6%
Second compound 3.16 µM, first compound 0.0949 µM
  viability, T/C: 28.5%
Second compound 3.16 µM, first compound 0.3 µM
  viability, T/C: 29%
Second compound 10 µM, first compound 0.000949 µM
  viability, T/C: 45.3%
Second compound 10 µM, first compound 0.003 µM
  viability, T/C: 39.3%
Second compound 10 µM, first compound 0.00949 µM
  viability, T/C: 38.8%
Second compound 10 µM, first compound 0.03 µM
  viability, T/C: 31.4%
Second compound 10 µM, first compound 0.0949 µM
  viability, T/C: 32.8%
Second compound 10 µM, first compound 0.3 µM
  viability, T/C: 27.7%
